Biological target: T1, Human CXCR3 (N-delta 4) (Homo sapiens, UniProt P49682)
T1 construct: CD8 leader (N); Flag tag; expressed in transfected cells; membranes prepared
T1 sequence (P49682 5-368 limits assumed): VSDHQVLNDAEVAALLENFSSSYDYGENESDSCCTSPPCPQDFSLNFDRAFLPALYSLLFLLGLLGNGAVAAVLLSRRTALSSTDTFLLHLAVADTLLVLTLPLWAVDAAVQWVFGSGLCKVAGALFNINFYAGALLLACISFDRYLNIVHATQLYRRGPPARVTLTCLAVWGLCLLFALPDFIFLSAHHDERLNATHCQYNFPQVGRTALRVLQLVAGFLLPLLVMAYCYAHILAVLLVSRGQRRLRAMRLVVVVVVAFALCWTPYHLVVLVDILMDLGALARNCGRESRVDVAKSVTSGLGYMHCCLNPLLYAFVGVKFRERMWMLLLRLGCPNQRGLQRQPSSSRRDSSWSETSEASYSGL
Test: Human CXCR3 (N-delta 4) scintillation proximity assay (SPA), [125I] IP-10 binding to Ba/F3-hCXCR3 membranes
Settings: IC50 rating; 25 pM [125I] IP-10, membranes of Ba/F3 cells expressing human CXCR3 (N-delta 4)
Text: The inventive compounds can readily be evaluated to determine activity at The CXCR3 receptors by known methods, such as, for example, Development of Human CXCR3 (N-delta 4) Binding Assay.
Cloning and Expression of Human CXCR3 (N-delta 4):
The DNA encoding human CXCR3 was cloned by PCR using human genomic DNA (Promega, Madison, Wis.) as a template. The PCR primers were designed based on the published sequence of human orphan receptor GPR9 (1) with incorporated restriction sites, a Kozak consensus sequence, CD8 leader and Flag tag. The PCR product was subcloned into the mammalian expression vector pME18Sneo, a derivative of the SR-alpha expression vector (designated as pME18Sneo-hCXCR3 (N-delta 4).
IL-3-dependent mouse pro-B cells Ba/F3 were transfected by electroporation in 0.4 ml Dulbecco's PBS containing 4×10^6 cells with 20 μg of pME18Sneo-hCXCR3 (N-delta 4) plasmid DNA. Cells were pulsed at 400 Volts, 100 OHMs, 960 μFd. The transfected cells were under selection with 1 mg/ml G418 (Life Technologies, Gaithersburg, Md.). G418-resistant Ba/F3 clones were screened for CXCR3 expression by specific binding of [^125I] IP-10 (NEN Life Science Products, Boston, Mass.).
Preparation of Ba/F3-hCXCR3 (N-delta 4) Membranes
Ba/F3 cells expressing human CXCR3 (N-delta 4) were pelleted and resuspended in the lysis buffer containing 10 mM HEPES, pH 7.5 and Complete® protease inhibitors (1 tablet per 100 ml) (Boehringer Mannheim, Indianapolis, Ind.) at a cell density of 20×10^6 cells per ml. After 5 minutes incubation on ice, cells were transferred to 4639 cell disruption bomb (Parr Instrument, Moline, Ill.) and applied with 1,500 psi of nitrogen for 30 minutes on ice. Large cellular debris was removed by centrifugation at 1,000×g. Cell membrane in the supernatant was sedimented at 100,000×g. The membrane was resuspended in the lysis buffer supplemented with 10% sucrose and stored at −80° C. Total protein concentration of the membrane was determined by BCA method from Pierce (Rockford, Ill.).
Human CXCR3 (N-delta 4) Scintillation Proximity Assay (SPA)
For each assay point, 2 μg of membrane was preincubated for 1 hr with 300 μg wheat germ agglutinin (WGA) coated SPA beads (Amersham, Arlington Heights, Ill.) in the binding buffer (50 mM HEPES, 1 mM CaCl2, 5 mM MgCl2, 125 mM NaCl, 0.002% NaN3, 1.0% BSA) at room temperature. The beads were spun down, washed once, resuspended in the binding buffer and transferred to a 96-well Isoplate (Wallac, Gaithersburg, Md.). 25 pM of [^125I] IP-10 with tested compounds in a series of titration were added to start the reaction. After 3 hr reaction at room temperature, the amount of [^125I] IP-10 bound to the SPA beads was determined with a Wallac 1450 Microbeta counter.
The Ki values for the various example compounds of the present invention are given in the afore-mentioned Table 1. From these values, it would be apparent to the skilled artisan that the compounds of the invention have excellent utility CXCR3 antagonists.

Structure (SMILES) | IC50 [nM]
CC[C@H]1CN(c2nc(N)c(C(=O)NC(=N)NC)nc2Cl)CCN1C1CCN(C(=O)c2ccc(Cl)nc2N)CC1 [Compound No. 1] | < 25
CCNC(=N)NC(=O)c1nc(Cl)c(N2CCN(C3CCN(C(=O)c4ccc(Cl)nc4N)CC3)[C@@H](CC)C2)nc1N [Compound No. 5] | < 25
CC[C@H]1CN(c2nc(N)c(C(=O)N[C@H]3CC[C@H]3O)nc2Cl)CCN1C1CCN(C(=O)c2ccc(Cl)nc2N)CC1 [Compound No. 15] | < 25
CC[C@H]1CN(c2nc(N)c(C(=O)OC)nc2Cl)CCN1C1CCN(C(=O)c2ccc(Cl)nc2N)CC1 [Compound No. 58] | 25 to 100
CC[C@H]1CN(c2ncc(C(=O)NC3CC3)nc2C)CCN1C1CCN(C(=O)c2ccc(Cl)nc2N)CC1 [Compound No. 155] | < 25
CCNC(=O)c1nc(C)c(N2CCN(C3CCN(C(=O)c4ccc(Cl)nc4N)CC3)[C@@H](CC)C2)nc1N [Compound No. 156] | < 25
CC[C@H]1CN(c2nc(N)c(C(=O)NC3CC3)nc2C)CCN1C1CCN(C(=O)c2ccc(Cl)nc2N)CC1 [Compound No. 157] | < 25
CC[C@H]1CN(c2nc(N)c(C(=O)NC[C@@H](C)O)nc2Cl)CCN1C1CCN(Cc2ccc(Cl)nc2N)CC1 [compound 2] | < 25
CC[C@H]1CN(c2nc(N)c(C(=O)NC(=N)N)nc2Cl)CCN1C1CCN(C(=O)c2ccc(Cl)nc2N)CC1 [compound 3] | < 25
CC[C@H]1CN(c2nc(N)c(C(=O)NC3CC3)nc2Cl)CCN1C1CCN(C(=O)c2ccc(Cl)nc2N)CC1 [compound 4] | < 25
CC[C@H]1CN(c2nc(N)c(C(=O)NC3CC3)nc2Cl)CCN1C1CCN(C(=O)c2cc(F)c(Cl)nc2N)CC1 [compound 6] | < 25
CC[C@H]1CN(c2nc(N)c(C(=O)NCCO)nc2Cl)CCN1C1CCN(C(=O)c2ccc(Cl)nc2N)CC1 [compound 7] | < 25
CC[C@H]1CN(c2nc(N)c(C(=O)NC[C@@H](C)O)nc2Cl)CCN1C1CCN(C(=O)c2ccc(Cl)nc2N)CC1 [compound 8] | < 25
CC[C@H]1CN(c2nc(N)c(C(=O)N[C@@H]3CC[C@@H]3O)nc2Cl)CCN1C1CCN(C(=O)c2ccc(Cl)nc2N)CC1 [compound 9] | < 25
CC[C@H]1CN(c2ncc(C(N)=O)nc2Cl)CCN1C1CCN(C(=O)c2ccc(Cl)nc2N)CC1 [compound 10] | < 25
CC[C@H]1CN(c2ncc(C(=O)NC[C@@H](C)O)nc2Cl)CCN1C1CCN(C(=O)c2ccc(Cl)nc2N)CC1 [compound 11] | < 25
CC[C@H]1CN(c2nc(N)c(C(=O)NCC(F)(F)F)nc2Cl)CCN1C1CCN(C(=O)c2ccc(Cl)nc2N)CC1 [compound 12] | < 25
CC[C@H]1CN(c2nc(N)c(C(=O)NC)nc2Cl)CCN1C1CCN(C(=O)c2cc(F)c(Cl)nc2N)CC1 [compound 13] | < 25
CC[C@H]1CN(c2nc(N)c(C(=O)NC(=N)NC(C)=O)nc2Cl)CCN1C1CCN(C(=O)c2ccc(Cl)nc2N)CC1 [compound 14] | < 25
CC[C@H]1CN(c2nc(N)c(C(=O)NC3CC3)nc2Cl)CCN1C1CCN(C(=O)c2cc(F)c(Cl)nc2Cl)CC1 [compound 16] | < 25
CC[C@H]1CN(c2nc(NCCOC)c(C(=O)NC3CC3)nc2Cl)CCN1C1CCN(C(=O)c2ccc(Cl)nc2N)CC1 [compound 17] | < 25
CC[C@H]1CN(c2nc(N)c(C(=O)N[C@@H]3CCC[C@H]3O)nc2Cl)CCN1C1CCN(C(=O)c2ccc(Cl)nc2N)CC1 [compound 18] | < 25
CC[C@H]1CN(c2nc(N)c(C(=O)NC3CC3)nc2Cl)CCN1C1CCN(C(=O)c2ccc(Cl)nc2Cl)CC1 [compound 19] | < 25
CC[C@H]1CN(c2nc(N)c(C(=O)NCCO)nc2Cl)CCN1C1CCN(Cc2ccc(Cl)nc2)CC1 [compound 20] | < 25

Structure (SMILES) | IC50 [nM]
CC[C@H]1CN(c2nc(N)c(C(=O)NCC3CC3)nc2Cl)CCN1C1CCN(C(=O)c2ccc(Cl)nc2N)CC1 [compound 21] | < 25
CC[C@H]1CN(c2nc(N)c(C(=O)NCCO)nc2Cl)CCN1C1CCN(C(=O)c2cc(F)c(Cl)nc2Cl)CC1 [compound 22] | < 25
CC[C@H]1CN(c2nc(N)c(C(=O)NC3(CO)CC3)nc2Cl)CCN1C1CCN(C(=O)c2ccc(Cl)nc2N)CC1 [compound 24] | < 25
CC[C@H]1CN(c2nc(N)c(C(=O)NCC(C)O)nc2Cl)CCN1C1CCN(C(=O)c2ccc(Cl)nc2N)CC1 (stereo partly shown) [compound 25] | < 25
CC[C@H]1CN(c2nc(N)c(C(=O)NCCC#N)nc2Cl)CCN1C1CCN(C(=O)c2ccc(Cl)nc2N)CC1 [compound 26] | < 25
CC[C@H]1CN(c2nc(N)c(C(=O)NC3CCCC3O)nc2Cl)CCN1C1CCN(C(=O)c2ccc(Cl)nc2N)CC1 (stereo partly shown) [compound 27] | < 25
CC[C@H]1CN(c2nc(N)c(C(=O)Nc3ncc[nH]3)nc2Cl)CCN1C1CCN(C(=O)c2ccc(Cl)nc2N)CC1 [compound 28] | < 25
CC[C@H]1CN(c2nc(N)c(C(=O)NCCO)nc2Cl)CCN1C1CCN(Cc2ccc(Cl)nc2Cl)CC1 [compound 29] | < 25
CC[C@H]1CN(c2nc(NCCC(=O)OC)c(C(=O)NC3CC3)nc2Cl)CCN1C1CCN(C(=O)c2ccc(Cl)nc2N)CC1 [compound 30] | < 25
CC[C@H]1CN(c2nc(N)c(C(N)=O)nc2Cl)CCN1C1CCN(Cc2ccc(Cl)nc2N)CC1 [compound 31] | < 25
CC[C@H]1CN(c2nc(N)c(C(=O)NCC3(O)CC3)nc2Cl)CCN1C1CCN(C(=O)c2ccc(Cl)nc2N)CC1 [compound 32] | < 25
CC[C@H]1CN(c2nc(N)c(C(=O)Nc3ccon3)nc2Cl)CCN1C1CCN(C(=O)c2ccc(Cl)nc2N)CC1 [compound 33] | < 25
CC[C@H]1CN(c2nc(N)c(C(=O)NCCNS(C)(=O)=O)nc2Cl)CCN1C1CCN(Cc2ccc(Cl)nc2N)CC1 [compound 34] | < 25
CC[C@H]1CN(c2nc(N)c(C(N)=O)nc2Cl)CCN1C1CCN(C(=O)c2ccc(Cl)nc2N)CC1 [compound 35] | < 25
CC[C@H]1CN(c2nc(N)c(C(=O)N[C@@H]3C[C@@H]3F)nc2Cl)CCN1C1CCN(C(=O)c2ccc(Cl)nc2N)CC1 [compound 37] | < 25
CC[C@H]1CN(c2nc(NC(=O)N(C)C)c(C(=O)NC3CC3)nc2Cl)CCN1C1CCN(C(=O)c2ccc(Cl)nc2N)CC1 [compound 38] | < 25
CC[C@H]1CN(c2nc(N)c(C(=O)NCCO)nc2Cl)CCN1C1CCN(Cc2ccc(OC)nc2)CC1 [compound 39] | < 25
CC[C@H]1CN(c2nc(N)c(C(=O)NCCO)nc2Cl)CCN1C1CCN(C(=O)c2ccc(Cl)nc2Cl)CC1 [compound 40] | < 25
CC[C@H]1CN(c2nc(N)c(C(N)=O)nc2Cl)CCN1C1CCN(C(=O)c2cc(F)c(Cl)nc2N)CC1 [compound 41] | < 25
CC[C@H]1CN(c2nc(N)c(C(=O)N[C@H]3CCC[C@@H]3O)nc2Cl)CCN1C1CCN(C(=O)c2ccc(Cl)nc2N)CC1 [compound 42] | < 25
CC[C@H]1CN(c2nc(N)c(C(=O)NC)nc2Cl)CCN1C1CCN(C(=O)c2ccc(Cl)nc2Cl)CC1 [compound 43] | < 25
CC[C@H]1CN(c2nc(N)c(C(=O)NC)nc2Cl)CCN1C1CCN(C(=O)c2ccc(Cl)nc2)CC1 [compound 44] | < 25
CC[C@H]1CN(c2nc(N)c(C(=O)NC)nc2Cl)CCN1C1CCN(C(=O)c2cc(F)c(Cl)nc2Cl)CC1 [compound 45] | < 25
CCNC(=O)NCc1nc(Cl)c(N2CCN(C3CCN(C(=O)c4ccc(Cl)nc4N)CC3)[C@@H](CC)C2)nc1N [compound 47] | < 25

Same assay, conditions: human CXCR3 (N-delta 4) SPA

Structure (SMILES) | IC50 [nM]
CC[C@H]1CN(c2nc(N)c(C(=O)NC(=N)NC)nc2Cl)CCN1C1CCN(C(=O)c2ccc(Cl)nc2N)CC1 [Compound No. 1] | 0.7

— US7879838B2, “Heteroaryl substituted pyrazinyl-piperazine-piperidines with CXCR3 antagonist activity” (Schering Corporation, priority 2005, dated 2011)
